Experimental findings from PubChem BioAssay (NCI) are described below.

Some test systems named below: ACHN renal; EKVX NSCLC; HCT-116 colon; KM12 colon; NCI-H460 lung; SK-MEL-5 melanoma; SR leukemia; U251 CNS; UO-31 renal; MDA-N; UACC-257 melanoma; HS 578T breast.
Test in all cases: growth of human tumour cells (NCI), 48 h

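Values below derive from 48-hour exposures of cells grown in 96-well plates, with endpoints linearly interpolated between the two concentrations bracketing the appropriate inhibition level. Abbreviation: GI50, concentration required for 50% inhibition of growth. At the TGI there is no net growth.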

Consider `Cc1cccc(-c2cc(=O)c3ccc(C)nc3[nH]2)c1`, for which the TGI in the assay with ACHN renal was greater than 100 µM; in the assay with EKVX NSCLC, greater than 100 µM; in the assay with HCT-116 colon it was greater than 20.4 µM; in the assay with KM12 colon it was 20.5 µM; in the assay with NCI-H460 lung, 19.5 µM; in the assay with SK-MEL-5 melanoma it was 15.4 µM. Besides, the TGI in the assay on SR leukemia was 2.07 µM; in the assay with U251 CNS it was greater than 100 µM; in the assay on UO-31 renal it was greater than 100 µM.
In the case of `CN(C)c1ccc(/C=C/c2sc3ccc4ccccc4c3[n+]2C)cc1`, the GI50 in the assay on ACHN renal is 0.537 µM; in the assay on UO-31 renal, 0.401 µM. Further, the TGI with ACHN renal is greater than 100 µM; with UO-31 renal, 3.84 µM.
Regarding `OCCSCCCSCCO`, the TGI in the assay on EKVX NSCLC, in the assay with HCT-116 colon, in the assay on KM12 colon, in the assay with MDA-N, in the assay on NCI-H460 lung and with SK-MEL-5 melanoma was greater than 100 µM throughout. Besides, the TGI with SR leukemia, in the assay with U251 CNS, with UACC-257 melanoma and with UO-31 renal was greater than 100 µM throughout.
For the molecule `COC1(OC)N=C(N)C2(C#N)C(C)CC(=O)N(N(C)C)C12C#N` (configuration not stated), the TGI in the assay on ACHN renal, with EKVX NSCLC, with HCT-116 colon, in the assay on HS 578T breast, in the assay on KM12 colon and with SK-MEL-5 melanoma was greater than 100 µM each time. For the same molecule, the TGI in the assay with SR leukemia, in the assay on U251 CNS, in the assay on UACC-257 melanoma and with UO-31 renal was greater than 100 µM each time.
With `NC(=O)c1n[nH]n(-c2ccccc2)c1=O`, the TGI in the assay with ACHN renal, with EKVX NSCLC, with HCT-116 colon, in the assay on HS 578T breast, in the assay on KM12 colon and in the assay on NCI-H460 lung was greater than 100 µM throughout. Further, the TGI in the assay on SK-MEL-5 melanoma, in the assay with U251 CNS, with UACC-257 melanoma and in the assay with UO-31 renal was greater than 100 µM in each case.
For the molecule `CN1N=C2c3ccccc3CC[C@H]2C1c1ccccc1` (some centres not stated), the TGI in the assay with ACHN renal, in the assay with EKVX NSCLC, with HCT-116 colon, in the assay on KM12 colon, with NCI-H460 lung and in the assay on SR leukemia was greater than 100 µM throughout. In addition, the TGI in the assay with U251 CNS is greater than 100 µM; with UACC-257 melanoma it was 70.3 µM; with UO-31 renal, greater than 100 µM.
For the molecule `OCCCSc1ccccc1SCCCO`, the TGI in the assay on EKVX NSCLC, with HCT-116 colon, in the assay with KM12 colon, in the assay with MDA-N, in the assay with NCI-H460 lung and in the assay on SK-MEL-5 melanoma was greater than 100 µM throughout. For the same molecule, the TGI in the assay on SR leukemia, in the assay with U251 CNS, in the assay with UACC-257 melanoma and in the assay on UO-31 renal was greater than 100 µM each time.
As for `c1ccc2c(c1)CCc1c-2n(CCN2CCCCC2)c2ccccc12`, the TGI was found to be 39.3 µM with ACHN renal; 37.9 µM in the assay on EKVX NSCLC; 25.5 µM in the assay on HCT-116 colon; 35.4 µM in the assay on HS 578T breast; 32 µM in the assay with KM12 colon; 29.7 µM with NCI-H460 lung. Further, the TGI in the assay on SK-MEL-5 melanoma was 12.9 µM; with SR leukemia, 32.3 µM; with U251 CNS it was 30.3 µM; in the assay with UACC-257 melanoma it was 32.5 µM; in the assay with UO-31 renal, 23.7 µM.
Regarding `Cc1cc(N(CCC#N)CCC#N)ccc1/C=C(\NC(=O)/C=C/c1ccccc1)NC(=O)Nc1ccc(Cl)cc1`, the TGI in the assay with ACHN renal, with EKVX NSCLC, in the assay on HCT-116 colon, with KM12 colon, in the assay with NCI-H460 lung and in the assay with SK-MEL-5 melanoma was greater than 100 µM throughout. Moreover, the TGI in the assay on U251 CNS was 39.4 µM; in the assay on UACC-257 melanoma it was greater than 100 µM; in the assay with UO-31 renal it was greater than 100 µM.
As for `OC1C(O)C(O)C(O)C(O)C1O` (configuration not stated), the TGI in the assay with ACHN renal, in the assay with HCT-116 colon, with HS 578T breast, with NCI-H460 lung, in the assay on SK-MEL-5 melanoma and with SR leukemia was greater than 1000 µM throughout. For the same molecule, the TGI in the assay on U251 CNS, in the assay with UACC-257 melanoma and with UO-31 renal was greater than 1000 µM throughout.
`CC(C)(C)c1cc(-c2ccc(-c3cc(C(C)(C)C)c(O)c(C(C)(C)C)c3)cc2)cc(C(C)(C)C)c1O`: the TGI in the assay with ACHN renal, in the assay with EKVX NSCLC, in the assay with HCT-116 colon, in the assay on KM12 colon, in the assay on MDA-N and in the assay on SK-MEL-5 melanoma was greater than 100 µM in each case. In addition, the TGI in the assay with SR leukemia, in the assay on U251 CNS, in the assay on UACC-257 melanoma and with UO-31 renal was greater than 100 µM each time.
Take `CCSc1nc2sc(C)c(C)c2c(=O)n1-c1ccc(C(=O)O)cc1`: the TGI is greater than 100 µM with ACHN renal; greater than 100 µM in the assay with EKVX NSCLC; 74.3 µM in the assay on HCT-116 colon; greater than 100 µM in the assay on KM12 colon; greater than 100 µM with NCI-H460 lung; greater than 100 µM in the assay with SK-MEL-5 melanoma. Besides, the TGI in the assay with SR leukemia, with U251 CNS, in the assay on UACC-257 melanoma and with UO-31 renal was greater than 100 µM throughout.
In the case of `O=C(CSc1nnc(Cc2ccccc2)o1)Nc1ccc(Cl)cc1`, the TGI is greater than 100 µM in the assay with ACHN renal; 92.4 µM with EKVX NSCLC; greater than 100 µM in the assay on HCT-116 colon; greater than 100 µM in the assay with KM12 colon; greater than 100 µM with NCI-H460 lung; greater than 100 µM with SK-MEL-5 melanoma. The TGI in the assay with U251 CNS, in the assay with UACC-257 melanoma and in the assay with UO-31 renal was greater than 100 µM each time.
In the case of `CC12O[C@H](c3ccccc3)[C@H](c3ccccc3)N1C(=O)C1(C(=O)OCc3ccccc3)CC12` (some centres not stated), the TGI in the assay on ACHN renal, in the assay with HCT-116 colon, in the assay with KM12 colon, in the assay with NCI-H460 lung, with SK-MEL-5 melanoma and in the assay with UACC-257 melanoma was greater than 100 µM in each case. In the assay on UO-31 renal, this molecule had a TGI greater than 100 µM.
